Earlier results, collected in paper PMC10036820, “In vivo evaluation of integrin αvβ6-targeting peptide in NSCLC and brain metastasis” (Frontiers in Oncology, 2023).

What was measured:
[1] = test system: HNSCC primary tumor and lymph node metastases; parameters: method as in PMID 29674419; settings: PET/CT, patient with HNSCC; ref [16]
integrin αvβ6 = test system: integrin αvβ6; parameters: method as in PMID 29674419; settings: comparison in words; ref [16]

GRGDLGRL [SFLAP3, SFTI-based peptide containing latency-associated peptide (GRGDLGRL)]
SUVmax, lymph node metastases [1]: 4.1
SUVmax, primary tumor [1]: 5.1
affinity to integrin αvβ6 relative to SFITGv6 (integrin αvβ6): better affinity
